Source: ChEMBL document CHEMBL1122103 (J Med Chem, 1982)

Experiments:
[1] = In vitro for antitumor activity against S180 Ascites tumor in mice at a dose of 15 mg/Kg (sc) was reported as percentage increase in life span; format: functional; settings: Mus musculus, S-180, sc
[2] = In vitro for antitumor activity against S180 Ascites tumor in mice at a dose of 6 mg/Kg (sc) was reported as percentage increase in life span; format: functional; settings: Mus musculus, S-180, sc
L1210 [3] = assay: In vitro for antitumor activity against L1210 leukemia in mice at a dose of 15 mg/Kg(sc) was reported as percentage increase in life span; format: functional; settings: Mus musculus
L1210 [4] = assay: (§1) In vitro membrane transport activity in L1210 cells in rodent; format: functional, cell-based; settings: Mus musculus
Mus musculus [5] = organism: Mus musculus; assay: In vitro membrane transport activity in S180 ascites tumor in rodent; format: functional
[6] = In vitro for antitumor activity against S180 Ascites tumor in mice at a dose of 6 mg/Kg (sc) was reported as weight at termination of the therapy; format: functional, Mus musculus
Enterococcus faecium [7] = assay: In vitro antibacterial activity against Streptococcus faecium (ATCC 8043); format: functional, organism-based
[8] = In vitro antitumor activity against S180 Ascites tumor in mice at a dose of 6 mg/Kg (sc) was reported as maximum survival time; format: functional, Mus musculus
Lacticaseibacillus casei [9] = assay: In vitro antibacterial activity against MTX-resistance Lactobacillus casei; format: functional, organism-based
Mus musculus [10] = organism: Mus musculus; assay: In vitro membrane transport activity in neoplastic epithelial cells of rodent gut; format: functional, cell-based; settings: Epithelial cell
[11] = In vitro for antitumor activity against S180 Ascites tumor in mice at a dose of 15 mg/Kg (sc) was reported as weight at termination of the therapy; format: functional, Mus musculus
Lacticaseibacillus casei [12] = assay: In vitro antibacterial activity against Lactobacillus casei (ATCC 7469); format: functional, organism-based
Ehrlich = assay: In vitro membrane transport activity in Ehrlich cells in rodent; format: functional, cell-based; settings: Mus musculus
L1210 [13] = assay: In vitro for antitumor activity against L1210 leukemia in mice at a dose of 15 mg/Kg(sc) was reported as weight at termination of the therapy; format: functional, Mus musculus
L1210 [14] = assay: as §1; format: functional, Mus musculus
L1210 [15] = assay: In vitro for antitumor activity against L1210 leukemia in mice at a dose of 15 mg/Kg(sc) was reported as maximum survival time; format: functional, Mus musculus
[16] = In vitro antitumor activity against S180 Ascites tumor in mice at a dose of 15 mg/Kg (sc) was reported as maximum survival time; format: functional, Mus musculus
Enterococcus faecium [17] = assay: In vitro antibacterial activity against MTX-resistant Streptococcus faecium; format: functional, organism-based
[18] = In vitro for antitumor activity against S180 Ascites tumor in mice at a dose of 36 mg/Kg (sc) was reported as weight at termination of the therapy; format: functional, Mus musculus
[19] = In vitro antitumor activity against S180 Ascites tumor in mice at a dose of 288 mg/Kg (sc) was reported as maximum survival time; format: functional, Mus musculus
[20] = In vitro for antitumor activity against S180 Ascites tumor in mice at a dose of 288 mg/Kg (sc) was reported as percentage increase in life span; format: functional; settings: Mus musculus, S-180, sc
Dihydrofolate reductase [21] = biological target: Dihydrofolate reductase (Lactobacillus casei, UniProt P00381); assay: In vitro inhibition of Dihydrofolate reductase activity against Lactobacillus casei enzyme; format: functional, Lacticaseibacillus casei
Sequence of Dihydrofolate reductase (Lactobacillus casei, UniProt P00381) (P00381 whole entry): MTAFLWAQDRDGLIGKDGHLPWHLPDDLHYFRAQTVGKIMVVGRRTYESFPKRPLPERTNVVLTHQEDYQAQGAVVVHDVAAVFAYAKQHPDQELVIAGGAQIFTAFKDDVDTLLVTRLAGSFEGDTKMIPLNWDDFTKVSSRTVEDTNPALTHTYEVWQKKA

[22] = In vitro antitumor activity against S180 Ascites tumor in mice at a dose of 36 mg/Kg (sc) was reported as maximum survival time; format: functional, Mus musculus
[23] = In vitro for antitumor activity against S180 Ascites tumor in mice at a dose of 36 mg/Kg (sc) was reported as percentage increase in life span; format: functional; settings: Mus musculus, S-180, sc
L1210 [24] = assay: In vitro for antitumor activity against L1210 leukemia in mice at a dose of 288 mg/Kg(sc) was reported as weight at termination of the therapy; format: functional, Mus musculus
L1210 [25] = assay: In vitro for antitumor activity against L1210 leukemia in mice at a dose of 288 mg/Kg(sc) was reported as maximum survival time; format: functional, Mus musculus
L1210 [26] = assay: In vitro inhibition of L1210 cell growth in rodent neoplastic cells; format: functional, cell-based; settings: Mus musculus
L1210 [27] = assay: In vitro for antitumor activity against L1210 leukemia in mice at a dose of 288 mg/Kg(sc) was reported as percentage increase in life span; format: functional; settings: Mus musculus
Dihydrofolate reductase [28] = biological target: T1, Dihydrofolate reductase (Mus musculus, UniProt P00375); assay: In vitro inhibitory activity against L1210 dihydrofolate reductase in rodent neoplastic cells
T1 sequence (P00375 whole entry): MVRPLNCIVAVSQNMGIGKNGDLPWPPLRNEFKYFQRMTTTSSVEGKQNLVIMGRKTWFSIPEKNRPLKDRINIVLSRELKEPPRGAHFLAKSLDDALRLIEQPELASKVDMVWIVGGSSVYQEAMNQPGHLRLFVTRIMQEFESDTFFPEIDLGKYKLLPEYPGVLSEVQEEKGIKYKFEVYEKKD

Thymidylate synthase = biological target: T2, Thymidylate synthase (Lactobacillus casei, UniProt P00469); assay: In vitro inhibition of activity against Lactobacillus casei enzyme thymidylate synthase; format: functional, Lacticaseibacillus casei
T2 sequence (P00469 whole entry): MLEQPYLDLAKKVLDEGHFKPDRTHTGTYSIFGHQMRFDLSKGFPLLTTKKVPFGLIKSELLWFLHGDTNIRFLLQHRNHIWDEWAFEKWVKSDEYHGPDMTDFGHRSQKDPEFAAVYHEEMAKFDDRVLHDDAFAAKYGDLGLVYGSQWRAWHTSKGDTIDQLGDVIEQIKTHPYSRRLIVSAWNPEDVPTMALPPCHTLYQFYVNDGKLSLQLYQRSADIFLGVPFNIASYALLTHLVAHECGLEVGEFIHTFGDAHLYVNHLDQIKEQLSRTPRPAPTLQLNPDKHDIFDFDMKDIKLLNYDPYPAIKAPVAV

[29] = In vitro for antitumor activity against S180 Ascites tumor in mice at a dose of 288 mg/Kg (sc) was reported as weight at termination of the therapy; format: functional, Mus musculus
L1210 [30] = assay: In vitro for antitumor activity against L1210 leukemia in mice at a dose of 288 mg/kg (s.c.) was reported as percentage increase in life span; format: functional; settings: Mus musculus, L1210, sc
L1210 [31] = assay: In vitro for antitumor activity against L1210 leukemia in mice at a dose of 144 mg/Kg(sc) was reported as weight at termination of the therapy; format: functional, Mus musculus
L1210 [32] = assay: In vitro for antitumor activity against L1210 leukemia in mice at a dose of 144 mg/Kg(sc) was reported as maximum survival time; format: functional, Mus musculus
L1210 [33] = assay: In vitro for antitumor activity against L1210 leukemia in mice at a dose of 144 mg/Kg(sc) was reported as percentage increase in life span; format: functional; settings: Mus musculus

## CN(Cc1cnc2nc(N)nc(N)c2n1)c1ccc(C(=O)N[C@@H](CCC(=O)O)C(=O)O)cc1 [METHOTREXATE]
[1]
  ILS at 15 mg/kg: 82%
[2]
  ILS at 6 mg/kg: 78%
L1210 [3]
  ILS at 15 mg/kg: 152%
L1210 [4]
  Km: 3.7 µM
Mus musculus [5]
  Km: 11.4 µM
[6]
  Weight at term: 24.1 g
Enterococcus faecium [7]
  IC50: 90 nM
[8]
  MST: 17.8 days
Lacticaseibacillus casei [9]
  IC50: > 10 mM
Mus musculus [10]
  Km: 339 µM
[11]
  Weight at term: 24.4 g
Lacticaseibacillus casei [12]
  IC50: 13 nM
Ehrlich
  Km: 10.1 µM
L1210 [13]
  Weight at term: 19.8 g
L1210 [14]
  k: 0.23 min⁻¹
L1210 [15]
  MST: 17.1 days
[16]
  MST: 21.4 days
Enterococcus faecium [17]
  IC50: 7.2 mM

## C#CCN(Cc1cnc2nc(N)nc(N)c2n1)c1ccc(C(=O)NC(CCC(=O)O)C(=O)O)cc1 (stereo unspecified)
[18]
  Weight at term: 23.9 g
[19]
  MST: 19.8 days
L1210 [4]
  Km: 3.2 µM
Mus musculus [5]
  Km: 2.1 µM
Enterococcus faecium [7]
  IC50: 210 nM
[20]
  ILS at 288 mg/kg: 67%
Dihydrofolate reductase [21]
  IC50: 10 nM
Lacticaseibacillus casei [9]
  IC50: > 10 mM
Mus musculus [10]
  Km: 385 µM
[22]
  MST: 22.9 days
[23]
  ILS at 36 mg/kg: 129%
L1210 [24]
  Weight at term: 22.3 g
Lacticaseibacillus casei [12]
  IC50: 14 nM
Ehrlich
  Km: 2.4 µM
L1210 [14]
  k: 0.26 min⁻¹
L1210 [25]
  MST: 16.6 days
L1210 [26]
  IC50: 1.4 nM
L1210 [27]
  ILS at 288 mg/kg: 143%
Dihydrofolate reductase [28]
  Ki: 0.5 nM
Enterococcus faecium [17]
  IC50: > 10 mM
Thymidylate synthase
  IC50: 20 µM
[29]
  Weight at term: 22.4 g

## CCCN(Cc1cnc2nc(N)nc(N)c2n1)c1ccc(C(=O)NC(CCC(=O)O)C(=O)O)cc1 (stereo unspecified)
L1210 [4]
  Km: 3.2 µM
Mus musculus [5]
  Km: 3.5 µM
Mus musculus [10]
  Km: 422 µM
L1210 [24]
  Weight at term: 21.3 g
Ehrlich
  Km: 4.2 µM
L1210 [14]
  k: 0.26 min⁻¹
L1210 [25]
  MST: 15.8 days
L1210 [26]
  IC50: 2.2 nM
L1210 [30]
  ILS at 288 mg/kg: 133%
Dihydrofolate reductase [28]
  Ki: 0.003 nM

## Nc1nc(N)c2nc(CNc3ccc(C(=O)N[C@@H](CCC(=O)O)C(=O)O)cc3)cnc2n1 [AMINOPTERIN]
L1210 [4]
  Km: 1.3 µM
Ehrlich
  Km: 2.1 µM
L1210 [14]
  k: 0.21 min⁻¹
L1210 [26]
  IC50: 1.2 nM
Dihydrofolate reductase [28]
  Ki: 0.004 nM

## CCCCCCCCN(Cc1cnc2nc(N)nc(N)c2n1)c1ccc(C(=O)NC(CCC(=O)O)C(=O)O)cc1 (stereo unspecified)
L1210 [4]
  Km: 5.6 µM
Mus musculus [5]
  Km: 1.8 µM
L1210 [31]
  Weight at term: 22.7 g
Enterococcus faecium [7]
  IC50: 410 nM
L1210 [32]
  MST: 8.1 days
L1210 [33]
  ILS at 144 mg/kg: 16%
Dihydrofolate reductase [21]
  IC50: 12 nM
Lacticaseibacillus casei [9]
  IC50: > 10 mM
Mus musculus [10]
  Km: 1290 µM
Lacticaseibacillus casei [12]
  IC50: 17 nM
Ehrlich
  Km: 1.3 µM
L1210 [14]
  k: 0.89 min⁻¹
L1210 [26]
  IC50: 217 nM
Dihydrofolate reductase [28]
  Ki: 17.5 nM
Enterococcus faecium [17]
  IC50: 0.67 mM
Thymidylate synthase
  IC50: > 80 µM
